Assay results published in ChEMBL document CHEMBL1133937, “New 1-aryl-4-(biarylmethylene)piperazines as potential atypical antipsychotics sharing dopamine D(2)-receptor and serotonin 5-HT(1A)-receptor affinities” (Bioorg Med Chem Lett, 2001).

Legend:
[1] = molecular target: T1, 5-hydroxytryptamine receptor 1A (Homo sapiens, UniProt P08908); assay: Binding affinity for 5-hydroxytryptamine 1A receptor determined using [3H]8-OH-DPAT as radioligand
T1 sequence (P08908 whole entry): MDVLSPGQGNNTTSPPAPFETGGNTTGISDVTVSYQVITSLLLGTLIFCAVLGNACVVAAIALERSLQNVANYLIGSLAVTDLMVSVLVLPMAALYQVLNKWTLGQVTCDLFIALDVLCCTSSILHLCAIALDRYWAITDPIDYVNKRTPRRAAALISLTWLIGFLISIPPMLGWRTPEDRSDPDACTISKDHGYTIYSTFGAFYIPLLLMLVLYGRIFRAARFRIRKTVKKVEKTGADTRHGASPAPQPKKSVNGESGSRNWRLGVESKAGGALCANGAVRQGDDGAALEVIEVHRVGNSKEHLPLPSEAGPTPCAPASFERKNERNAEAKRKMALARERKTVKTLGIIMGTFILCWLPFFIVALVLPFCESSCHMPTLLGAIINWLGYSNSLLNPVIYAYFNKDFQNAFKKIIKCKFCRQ

Rattus norvegicus [2] = assay: Tested for occurrence of lower lip retraction in rat after po administration of the compound; assay type: functional
Rattus norvegicus [3] = assay: In vivo suppression of the conditioned avoidance response (CAR) in rats after po administration of the compound; assay type: functional
Mus musculus = assay: In vivo inhibition of the apomorphine-induced climbing behavior in mice; assay type: functional
Rattus norvegicus [4] = assay: In vivo suppression of the conditioned avoidance response (CAR) in rats after ip administration of the compound; assay type: functional

| SMILES | Ki [1] | other results |
| --- | --- | --- |
| Cc1cccc(-c2cccc(CN3CCN(c4cccc5[nH]c(=O)oc45)CC3)c2)c1 | 35 nM |  |
| O=C1COc2c(cccc2N2CCN(Cc3cccc(-c4ccccc4)c3)CC2)N1 | 49 nM |  |
| Cn1c(=O)oc2c(N3CCN(Cc4cccc(-c5ccccc5)c4)CC3)cccc21 | 130 nM |  |
| c1ccc(-c2cccc(CN3CCN(c4cccc5c4CCCN5)CC3)c2)cc1 | 85 nM |  |
| COc1cccc(-c2cccc(CN3CCN(c4cccc5[nH]c(=O)oc45)CC3)c2)c1 | 21 nM |  |
| c1ccc(-c2cccc(CN3CCN(c4cccc5c4OCCN5)CC3)c2)cc1 | 26 nM |  |
| COc1ccccc1N1CCN(CCNC(=O)c2ccc(F)cc2)CC1 | 1 nM |  |
| O=c1[nH]c2cccc(N3CCN(Cc4ccnc(-c5ccc(F)cc5)c4)CC3)c2o1 | 21 nM |  |
| O=c1[nH]c2cccc(N3CCN(Cc4cccc(-c5cccs5)c4)CC3)c2o1 | 32 nM |  |
| O=c1[nH]c2cccc(N3CCN(Cc4cc(-c5ccccc5)ccc4F)CC3)c2o1 | 41 nM |  |
| c1ccc(-c2cccc(CN3CCN(c4cccc5c4OCCO5)CC3)c2)cc1 | 0.91 nM |  |
| O=C(NCCN1CCN(c2cccc3nc(O)oc23)CC1)c1ccc(F)cc1 | 7.9 nM |  |
| c1ccc(-c2cccc(CN3CCN(c4cccc5c4OCO5)CC3)c2)cc1 | 15 nM |  |
| CN1CCN(C2=Nc3cc(Cl)ccc3Nc3ccccc32)CC1 [CLOZAPINE] |  | ED50 (Rattus norvegicus [3]): 32 mg/kg; ED50 (Mus musculus): 22 mg/kg |
| Fc1ccc(-c2ccc(CN3CCN(c4cccc5ccoc45)CC3)[nH]2)cc1 [ELOPIPRAZOLE] | 1.5 nM |  |
| O=C(CCCN1CCC(O)(c2ccc(Cl)cc2)CC1)c1ccc(F)cc1 [HALOPERIDOL] |  | ED50 (Rattus norvegicus [3]): 0.3 mg/kg; ED50 (Mus musculus): 0.2 mg/kg |
| Cc1nc2n(c(=O)c1CCN1CCC(c3noc4cc(F)ccc34)CC1)CCCC2 [RISPERIDONE] |  | ED50 (Rattus norvegicus [3]): 1 mg/kg; ED50 (Mus musculus): 0.1 mg/kg |

Now from value to compound, other results behind:

| Ki [1] | SMILES | other results |
| --- | --- | --- |
| 14 nM | Oc1nc2cccc(N3CCN(Cc4cccc(-c5ccc(F)cc5)c4)CC3)c2o1 |  |
| 16 nM | Oc1nc2cccc(N3CCN(Cc4cc(-c5ccc(F)cc5)ccn4)CC3)c2o1 | ED50 (Rattus norvegicus [2]): > 30 mg/kg; ED50 (Rattus norvegicus [3]): < 10 mg/kg; ED50 (Mus musculus): 0.1 mg/kg |
| 38 nM | c1ccc(-c2cccc(CN3CCN(c4cccc5ccoc45)CC3)c2)cc1 |  |
| 17 nM | Oc1nc2cccc(N3CCN(Cc4cccc(-c5ccsc5)c4)CC3)c2o1 | ED50 (Rattus norvegicus [2]): > 30 mg/kg; ED50 (Mus musculus): 0.2 mg/kg; ED50 (Rattus norvegicus [4]): > 20 mg/kg |
| 200 nM | Oc1nc2cccc(N3CCN(Cc4cccc(-c5ccc(F)cc5)n4)CC3)c2o1 |  |
| 32 nM | N#Cc1ccccc1-c1cccc(CN2CCN(c3cccc4nc(O)oc34)CC2)c1 |  |
| 7.8 nM | Oc1nc2cccc(N3CCN(Cc4cncc(-c5ccccc5)c4)CC3)c2o1 | ED50 (Rattus norvegicus [2]): 3 mg/kg; ED50 (Rattus norvegicus [3]): 0.4 mg/kg; ED50 (Mus musculus): 0.1 mg/kg |
| 42 nM | Oc1nc2cccc(N3CCN(Cc4cccc(-c5cccc(Cl)c5)c4)CC3)c2o1 |  |
| 23 nM | N#Cc1cccc(-c2cccc(CN3CCN(c4cccc5nc(O)oc45)CC3)c2)c1 |  |
| 7.6 nM | Oc1nc2cccc(N3CCN(Cc4ccc(O)c(-c5ccccc5)c4)CC3)c2o1 | ED50 (Rattus norvegicus [2]): > 30 mg/kg; ED50 (Mus musculus): 7 mg/kg; ED50 (Rattus norvegicus [4]): 20 mg/kg |
| 9.3 nM | O=c1[nH]c2cccc(N3CCN(Cc4cccc(-c5ccccc5)c4)CC3)c2o1 [BIFEPRUNOX] | ED50 (Rattus norvegicus [2]): 10 mg/kg; ED50 (Rattus norvegicus [3]): 0.8 mg/kg; ED50 (Mus musculus): 0.1 mg/kg |
